How the values were obtained:
human TLR9 = target: T1, human TLR9 (Homo sapiens, UniProt Q9NR96); assay: TLR9 inhibition reporter assay (HEK-Blue SEAP); format: cell-based; conditions: HEK-Blue cells overexpressing human TLR9, ODN2006 5 nM, 22 hour incubation
T1 construct: host or cells: HEK-Blue cells
T1 sequence (Q9NR96 26-1032): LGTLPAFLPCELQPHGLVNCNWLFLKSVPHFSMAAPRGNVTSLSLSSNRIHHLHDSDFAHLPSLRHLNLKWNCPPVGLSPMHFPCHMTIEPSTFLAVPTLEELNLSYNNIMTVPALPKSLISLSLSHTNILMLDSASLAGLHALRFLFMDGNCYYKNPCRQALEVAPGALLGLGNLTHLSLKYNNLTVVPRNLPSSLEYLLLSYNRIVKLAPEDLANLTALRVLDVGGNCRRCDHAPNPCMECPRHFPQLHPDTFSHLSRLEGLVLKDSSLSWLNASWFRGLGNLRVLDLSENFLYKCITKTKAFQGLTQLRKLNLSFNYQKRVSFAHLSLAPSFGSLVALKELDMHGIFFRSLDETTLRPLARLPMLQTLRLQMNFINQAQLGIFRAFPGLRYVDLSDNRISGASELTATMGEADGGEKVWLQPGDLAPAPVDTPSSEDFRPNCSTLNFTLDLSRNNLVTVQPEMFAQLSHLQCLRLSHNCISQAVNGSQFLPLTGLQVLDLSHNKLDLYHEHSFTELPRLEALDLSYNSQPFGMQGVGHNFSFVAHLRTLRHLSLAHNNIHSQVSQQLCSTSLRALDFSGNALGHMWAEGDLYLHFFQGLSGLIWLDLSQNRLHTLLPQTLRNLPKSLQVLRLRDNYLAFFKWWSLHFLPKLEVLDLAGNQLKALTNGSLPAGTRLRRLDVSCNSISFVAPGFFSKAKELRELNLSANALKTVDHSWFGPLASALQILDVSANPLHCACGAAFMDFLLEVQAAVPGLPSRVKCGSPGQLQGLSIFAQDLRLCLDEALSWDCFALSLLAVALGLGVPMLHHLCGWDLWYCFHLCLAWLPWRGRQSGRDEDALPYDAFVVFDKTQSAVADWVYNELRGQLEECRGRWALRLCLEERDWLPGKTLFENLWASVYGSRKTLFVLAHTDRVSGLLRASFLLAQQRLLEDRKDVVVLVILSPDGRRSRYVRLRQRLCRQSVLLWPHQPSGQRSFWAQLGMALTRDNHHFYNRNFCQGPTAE
Procedure: (§1) TLR7/8/9 Inhibition Reporter Assays
(§2) HEK-Blue™-cells (Invivogen) overexpressing human TLR7, TLR8 or TLR9 receptors were used for screening inhibitors of these receptors using an inducible SEAP (secreted embryonic alkaline phosphatase) reporter gene under the control of the IFN-β minimal promoter fused to five NF-κB and AP-1-binding sites. Briefly, cells are seeded into Greiner 384 well plates (15000 cells per well for TLR7, 20,000 for TLR8 and 25,000 for TLR9) and then treated with test compounds in DMSO to yield a final dose response concentration range of 0.05 nM-50 μM. After a 30 minute compound pre-treatment at room temperature, the cells are then stimulated with a TLR7 ligand (gardiquimod at a final concentration of 7.5 μM), TLR8 ligand (R848 at a final concentration of 15.9 μM) or TLR9 ligand (ODN2006 at a final concentration of 5 nM) to activate NF-κB and AP-1 which induce the production of SEAP. After a 22 hour incubation at 37° C., 5% CO2, SEAP levels are determined with the addition of HEK-Blue™ Detection reagent (Invivogen), a cell culture medium that allows for detection of SEAP, according to manufacturer's specifications. The percent inhibition is determined as the % reduction in the HEK-Blue signal present in wells treated with agonist plus DMSO alone compared to wells treated with a known inhibitor.

human TLR8 = target: T2, human TLR8 (Homo sapiens, UniProt Q9NR97); assay: TLR8 inhibition reporter assay (HEK-Blue SEAP); format: cell-based; conditions: HEK-Blue cells overexpressing human TLR8, R848 15.9 μM, 22 hour incubation
T2 construct: host or cells: HEK-Blue cells
T2 sequence (Q9NR97 27-1041): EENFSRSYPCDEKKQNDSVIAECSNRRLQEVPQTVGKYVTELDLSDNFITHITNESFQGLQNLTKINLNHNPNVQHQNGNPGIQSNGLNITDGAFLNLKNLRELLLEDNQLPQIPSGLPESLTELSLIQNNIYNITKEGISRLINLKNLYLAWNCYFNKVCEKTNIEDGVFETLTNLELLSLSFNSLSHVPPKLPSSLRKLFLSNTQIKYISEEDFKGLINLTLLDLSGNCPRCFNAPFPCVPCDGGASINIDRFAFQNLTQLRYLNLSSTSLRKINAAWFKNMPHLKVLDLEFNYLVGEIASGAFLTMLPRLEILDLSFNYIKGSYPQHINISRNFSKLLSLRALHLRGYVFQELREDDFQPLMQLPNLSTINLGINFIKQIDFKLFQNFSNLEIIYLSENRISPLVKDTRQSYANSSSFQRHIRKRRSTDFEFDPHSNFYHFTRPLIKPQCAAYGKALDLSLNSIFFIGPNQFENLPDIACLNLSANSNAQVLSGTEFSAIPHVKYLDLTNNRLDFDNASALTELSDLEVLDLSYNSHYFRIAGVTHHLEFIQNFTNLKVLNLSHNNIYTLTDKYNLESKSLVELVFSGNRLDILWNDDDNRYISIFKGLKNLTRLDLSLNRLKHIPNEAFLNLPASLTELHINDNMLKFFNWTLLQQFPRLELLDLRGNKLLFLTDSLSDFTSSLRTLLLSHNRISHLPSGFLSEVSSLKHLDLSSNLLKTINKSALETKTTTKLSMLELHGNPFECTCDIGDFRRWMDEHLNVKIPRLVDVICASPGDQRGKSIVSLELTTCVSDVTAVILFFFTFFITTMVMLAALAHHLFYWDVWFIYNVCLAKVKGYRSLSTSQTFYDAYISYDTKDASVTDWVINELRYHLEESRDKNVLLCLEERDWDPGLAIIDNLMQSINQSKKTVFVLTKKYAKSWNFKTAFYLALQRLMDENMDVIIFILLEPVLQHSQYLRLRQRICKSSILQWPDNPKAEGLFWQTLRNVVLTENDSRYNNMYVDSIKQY
Procedure: as §1, §2

Structure (SMILES)	IC50 (human TLR9) [nM]	IC50 (human TLR8) [nM]
CCCN1CCC(n2c(=O)[nH]c3cc(-c4cc(C)c5ncnn5c4)c(C)cc32)CC1 [Example 7, 6-methyl-5-(8-methyl-[1,2,4]triazolo[1,5-a]pyridin-6-yl)-1-(1-propylpiperidin-4-yl)-1,3-dihydro-2H-benzo[d]imidazol-2-one]	1330	48.6
COc1cc(-c2cc3[nH]c(=O)n(C4CCN(CC5CC5)CC4)c3cc2C(C)C)cn2ncnc12 [Example 161, 1-(1-(cyclopropylmethyl)piperidin-4-yl)-6-isopropyl-5-(8-methoxy-[1,2,4]triazolo[1,5-a]pyridin-6-yl)-1,3-dihydro-2H-benzo[d]imidazol-2-one]	11300	6.04
CCCN1CCC[C@H](n2c(=O)[nH]c3cc(-c4cc(OC)c5ncnn5c4)c(C(C)C)cc32)C1 [Example 121, (S)-6-isopropyl-5-(8-methoxy-[1,2,4]triazolo[1,5-a]pyridin-6-yl)-1-(1-propylpiperidin-3-yl)-1,3-dihydro-2H-benzo[d]imidazol-2-one]	13600	1.82
Cc1cc(-c2cc(C)c3ncnn3c2)cc2[nH]c(=O)n(C3CCN(C)CC3)c12 [Example 106, 7-methyl-5-(8-methyl-[1,2,4]triazolo[1,5-a]pyridin-6-yl)-1-(1-methylpiperidin-4-yl)-1,3-dihydro-2H-benzo[d]imidazol-2-one]	3740	150
Cc1cc(-c2ccc3c(c2)[nH]c(=O)n3C2CCN(C)CC2)cn2ncnc12 [Example 4, 5-(8-methyl-[1,2,4]triazolo[1,5-a]pyridin-6-yl)-1-(1-methylpiperidin-4-yl)-1,3-dihydro-2H-benzo[d]imidazol-2-one]	964	1280
COc1cc(-c2cc3[nH]c(=O)n(C4CCN(C5CCOCC5)CC4)c3cc2C(C)C)cn2ncnc12 [Example 158, 6-isopropyl-5-(8-methoxy-[1,2,4]triazolo[1,5-a]pyridin-6-yl)-1-(1-(tetrahydro-2H-pyran-4-yl)piperidin-4-yl)-1,3-dihydro-2H-benzo[d]imidazol-2-one]	21400	16.2
CCCN1CCC[C@@H](n2c(=O)[nH]c3cc(-c4cn5ncnc5c(C)c4C)c(C(C)C)cc32)C1 [Example 150, (R)-5-(7,8-dimethyl-[1,2,4]triazolo[1,5-a]pyridin-6-yl)-6-isopropyl-1-(1-propylpiperidin-3-yl)-1,3-dihydro-2H-benzo[d]imidazol-2-one]	11900	4.25
COc1cc(-c2cc3[nH]c(=O)n([C@@H]4CCCN(CC5CCOCC5)C4)c3cc2C(C)C)cn2ncnc12 [Example 139, (R)-6-isopropyl-5-(8-methoxy-[1,2,4]triazolo[1,5-a]pyridin-6-yl)-1-(1-((tetrahydro-2H-pyran-4-yl)methyl)piperidin-3-yl)-1,3-dihydro-2H-benzo[d]imidazol-2-one]	7810	1.27
Cc1cc(-c2cc(C)c3ncnn3c2)cc2[nH]c(=O)n(C3CCN(CC(=O)N(C)C)CC3)c12 [Example 109, N,N-dimethyl-2-(4-(7-methyl-5-(8-methyl-[1,2,4]triazolo[1,5-a]pyridin-6-yl)-2-oxo-2,3-dihydro-1H-benzo[d]imidazol-1-yl)piperidin-1-yl)acetamide]	14300	541
CCN1CCC[C@@H](n2c(=O)[nH]c3cc(-c4cc(OC)c5ncnn5c4)c(C(C)C)cc32)C1 [Example 138, (R)-1-(1-ethylpiperidin-3-yl)-6-isopropyl-5-(8-methoxy-[1,2,4]triazolo[1,5-a]pyridin-6-yl)-1,3-dihydro-2H-benzo[d]imidazol-2-one]	17900	2.64
CCN1CCC[C@@H](n2c(=O)[nH]c3cc(-c4cc(OC)c5ncnn5c4)c(C(F)(F)F)cc32)C1 [Example 110, (R)-1-(1-ethylpiperidin-3-yl)-5-(8-methoxy-[1,2,4]triazolo[1,5-a]pyridin-6-yl)-6-(trifluoromethyl)-1,3-dihydro-2H-benzo[d]imidazol-2-one]	7820	4.06
COc1cc(-c2cc3[nH]c(=O)n([C@H]4CCCN(CC5CCC5)C4)c3cc2C(C)C)cn2ncnc12 [Example 133, (S)-1-(1-(cyclobutylmethyl)piperidin-3-yl)-6-isopropyl-5-(8-methoxy-[1,2,4]triazolo[1,5-a]pyridin-6-yl)-1,3-dihydro-2H-benzo[d]imidazol-2-one]	7140	5.9
COc1cc(-c2cc3[nH]c(=O)n([C@@H]4CCCN(CC5CCOCC5)C4)c3cc2C(F)(F)F)cn2ncnc12 [Example 112, (R)-5-(8-methoxy-[1,2,4]triazolo[1,5-a]pyridin-6-yl)-1-(1-((tetrahydro-2H-pyran-4-yl)methyl)piperidin-3-yl)-6-(trifluoromethyl)-1,3-dihydro-2H-benzo[d]imidazol-2-one]	12700	20.3
CCC(CC)CN1CCC[C@H](n2c(=O)[nH]c3cc(-c4cc(OC)c5ncnn5c4)c(C(C)C)cc32)C1 [Example 130, (S)-1-(1-(2-ethylbutyl)piperidin-3-yl)-6-isopropyl-5-(8-methoxy-[1,2,4]triazolo[1,5-a]pyridin-6-yl)-1,3-dihydro-2H-benzo[d]imidazol-2-one]	9610	8.52
COc1cc(-c2cc3[nH]c(=O)n([C@@H]4CCCN(CC(C)C)C4)c3cc2C(C)C)cn2ncnc12 [Example 141, (R)-1-(1-isobutylpiperidin-3-yl)-6-isopropyl-5-(8-methoxy-[1,2,4]triazolo[1,5-a]pyridin-6-yl)-1,3-dihydro-2H-benzo[d]imidazol-2-one]	3880	0.56
COCCN1CCC[C@@H](n2c(=O)[nH]c3cc(-c4cc(OC)c5ncnn5c4)c(C)cc32)C1 [Example 98, (R)-5-(8-methoxy-[1,2,4]triazolo[1,5-a]pyridin-6-yl)-1-(1-(2-methoxyethyl)piperidin-3-yl)-6-methyl-1,3-dihydro-2H-benzo[d]imidazol-2-one]	5910	60.6

Source: patent US12187723B2 (BRISTOL-MYERS SQUIBB COMPANY, priority 2019, dated 2025)
